{"source": "patent US5415869A", "about": "“Taxol formulation” (The Research Foundation of State University of New York, priority 1993, dated 1995)", "key": {"[1]": {"assay": "Maximum Tolerated Dose / toxicity in healthy mice", "type": "in vivo", "conditions": "mouse, in vivo, iv", "procedure": "(§1) The Maximum Tolerated Dose (\"MTD\") for taxol-liposome formulations administered via the intravenous route was determined in healthy BALB/c female mice. Survey experiments to define the MTD were performed with two animals per group. Doses were escalated in 2-fold increments, starting at 5 mg/kg. Drug effects were determined by close observation of weight changes and survival. The highest non-lethal dose of taxol causing >10% weight loss within one week of cessation of dosing was defined as the MTD. Animals showing weight loss exceeding 20% were sacrificed, as changes of this magnitude often indicate lethal toxicity (E. Mayhew, unpublished observations). After completing the survey experiments, the approximate MTD was refined further using 3 groups of 8 mice."}, "[2]": {"tested_on": "healthy BALB/c female mice", "assay": "Maximum Tolerated Dose / toxicity in healthy mice", "type": "in vivo", "conditions": "i.v., single dose", "procedure": "as §1"}, "[3]": {"tested_on": "C-26, a murine colon tumor line", "assay": "Cytostatic activity in vitro, C-26", "type": "cell-based", "text": "(§2) FIG. 7 is a plot of cell lines versus IC50 which compares the growth-inhibitory properties of taxol/liposomes to those of free taxol. Cells were placed at a density of 2×10^4 /ml in multiwell plates and allowed to adhere overnight. Triplicate wells were exposed to various concentration of taxol, either added as liposomes (solid bar), as a 100× concentrated stock in DMSO (stippled bar), or absorbed to serum proteins (hatched bar) in the absence of organic solvent. […] Experiments were repeated at least twice. Cell lines are as follows: Colon-26: murine colon carcinoma; B16: murine melanoma; B16F10: highly-metastatic variant of B16 murine melanoma; L1210: murine leukemia; 9L: rat gliosarcoma; A12la, Hcy-lb, and A90: human ovarian tumor cell lines."}, "[4]": {"tested_on": "A121a, a human ovarian tumor line", "assay": "Cytostatic activity in vitro, A121a", "type": "cell-based", "conditions": "72 hr", "text": "as §2"}, "human tumor lines": {"tested_on": "human tumor lines", "assay": "Cytostatic activity in vitro, human tumor lines", "type": "cell-based", "conditions": "human tumor lines more sensitive than C-26", "text": "as §2"}, "tumor cell lines": {"tested_on": "tumor cell lines", "assay": "Cytostatic activity in vitro, variety of tumor cell lines", "type": "cell-based", "conditions": "across tumor cell lines", "text": "as §2"}, "9L rate gliosarcoma": {"tested_on": "9L rate gliosarcoma", "assay": "Cytostatic activity in vitro, 9L", "type": "cell-based, rat", "conditions": "0.1% DMSO vs drug dissolved directly in serum-containing growth medium", "text": "as §2"}, "A90 human ovarian tumor": {"tested_on": "A90 human ovarian tumor", "assay": "Cytostatic activity in vitro, A90", "type": "cell-based", "conditions": "0.1% DMSO vs drug dissolved directly in serum-containing growth medium", "text": "as §2"}, "[5]": {"tested_on": "Colon-26 (C-26), a murine colon tumor model", "assay": "Antitumor activity in one dose, s.c. Colon-26", "type": "in vivo, BALB/c mice", "protocol": "Subcutaneous Colon-26 tumors were initiated and checked daily. When the tumor was measurable (day 8), a single intravenous bolus dose of taxol was given, either in Cremophor EL®/ethanol (Diluent 12) or in liposomes (indicated by the filled circle along the abscissa). Untreated controls received injections of equivalent volumes of saline or Diluent 12 (diluted 1:3) without taxol (panel A). […]\n(§3) In all experiments, the tumor volume of each animal was measured frequently, and the data was subjected to statistical analysis using an BMDP 1L program. The median time required for the tumor to reach 1500 mm^3 was determined for each treatment group (as indicated by the insert). […]\nSubcutaneous tumors on the left flank were initiated by injection of 10^6 viable cells in a volume of 0.1 ml. […] The dose per mouse was adjusted on the basis of its weight, determined at the time of treatment. […] Animal weight and tumor volume was measured five times weekly until the tumor volume reached 2000 mm^3, at which time animals were sacrificed for humane reasons."}, "[6]": {"tested_on": "Colon-26 (C-26), a murine colon tumor model", "assay": "Antitumor activity in four doses, s.c. Colon-26", "type": "in vivo, BALB/c mice", "conditions": "4 i.v. doses", "protocol": "Subcutaneous Colon-26 tumors were initiated. When the tumor was measurable (day 7), intravenous treatment was initiated and was repeated on days 8, 12, and 13 (as indicated by the filled circles along the abscissa). Untreated controls received injections of saline or Diluent 12 (diluted 1:3) without taxol (panel A). Treatment with liposome-based taxol formulations consisted of 20, 30, or 40 mg/kg doses of the following: taxol, and, PG, and PC multilamellar vesicles (\"MLV\") (B), taxol, PG, and PC SUV (C), or taxol, PEG-DPPE, and PC SUV (D). Alternatively, free taxol in Diluent 12 (diluted 1:3 with saline), was administered at doses of 10, 20, or 30 mg/kg (E). […] For humane reasons, animals were sacrificed when tumor volume exceeded 2000mm^3.\nas §3\nSubcutaneous tumors on the left flank were initiated by injection of 10^6 viable cells in a volume of 0.1 ml. […] The dose per mouse was adjusted on the basis of its weight, determined at the time of treatment. […] Animal weight and tumor volume was measured five times weekly until the tumor volume reached 2000 mm^3, at which time animals were sacrificed for humane reasons. […]"}, "[7]": {"tested_on": "advanced and refractory ovarian cancer", "conditions": "phase II, heavily-pretreated patients; cited from earlier work"}, "metastatic breast cancer": {"tested_on": "metastatic breast cancer", "conditions": "phase II, pretreated patients; cited from earlier work"}, "[8]": {"tested_on": "Colon-26 (C-26), a murine colon tumor model", "assay": "Antitumor activity in nine doses, s.c. Colon-26", "protocol": "FIGS. 3A-C show plots of mean tumor size versus days after tumor implantation which indicates the antitumor effect of nine doses of free- or liposomal taxol on Colon-26 tumors. Subcutaneous Colon-26 tumors were initiated. When the tumor was measurable (day 8), treatment was initiated. Animals were dosed 3 times weekly, and treatment was given for 3 weeks, as indicated by the filled circle along the abscissa. Untreated controls received injections of saline or Diluent 12 (diluted 1:3) without taxol (panel A). Treatment with liposome-based taxol formulations consisted of 10, 40, or 60 mg/kg doses with taxol, PG, and PC SUV (B). Alternatively, free taxol in Diluent 12 (diluted 1:3 with saline), was administered at doses of 10, 20, or 30 mg/kg (C). […] Each treatment group consisted of ten animals. For humane reasons, animals were sacrificed when tumor volume exceeded 2000 mm^3.\nIn all experiments, the tumor volume of each animal was measured frequently, and the data was subjected to statistical analysis using an BMDP 1L program. The median time required for the tumor to reach 1500 mm^3 was determined for each treatment group (as indicated by the insert).\nThe viability of cells was >80% by trypan blue exclusion.\nSubcutaneous tumors on the left flank were initiated by injection of 10^6 viable cells in a volume of 0.1 ml. Mice were then randomized into various treatment groups and numbered. The dose per mouse was adjusted on the basis of its weight, determined at the time of treatment. Treatment was started 7 or 8 days after tumor implantation, and consisted of i.v. injections through the tail vein. Buffer or Diluent 12 without taxol were used as control treatments. Animal weight and tumor volume was measured five times weekly until the tumor volume reached 2000 mm^3, at which time animals were sacrificed for humane reasons. Tumor volume was determined by measuring three orthogonal diameters of the tumor, and was calculated as 1/2 of the product of the diameters (Begg, A. C., \"Principles and Practices of the Tumor Growth Delay Assay,\" Rodent Tumor (R. F. Kallman (ed.)), pp. 114-121, New York:Pergammon Press, (1987), which is hereby incorporated by reference). The data was analyzed for statistical significance using the BMDP 1L program (BMDP Statistical Software Inc.; Los Angeles, Calif.)."}, "[9]": {"conditions": "free taxol 20 mg/kg (cumulative 180 mg/kg)"}}, "note": "Read-outs that look alike come from different tables or passages of the source."}
{"smiles": "CC(=O)O[C@H]1C(=O)[C@@]2(C)[C@H]([C@H](OC(=O)c3ccccc3)[C@]3(O)C[C@H](OC(=O)[C@H](O)[C@@H](NC(=O)c4ccccc4)c4ccccc4)C(C)=C1C3(C)C)[C@]1(OC(C)=O)CO[C@@H]1C[C@@H]2O", "note": "[taxol]", "values": [{"measurement": "MTD", "setting": "[1]; owing to the toxicity of Diluent 12, read-out: dose of free taxol that could be given as a single injection", "result": "< 35", "unit": "mg/kg"}, {"measurement": "MTD", "setting": "[1]; single dose, read-out: MTD, single dose", "result": "~30", "unit": "mg/kg"}, {"measurement": "MTD, single dose", "setting": "[2]", "result": 30, "unit": "mg/kg"}, {"measurement": "effect of DMSO on cytostatic activity", "setting": "[3]; C-26", "result": "not affected by DMSO"}, {"measurement": "IC50", "setting": "[3]; Mus musculus, C-26, 72 hr", "result": "90 ± 10", "unit": "µM"}, {"measurement": "IC50", "setting": "[4]", "result": "1.5 ± 0.7", "unit": "µM"}, {"measurement": "sensitivity to taxol relative to C-26", "setting": "human tumor lines", "result": "at least 10 fold"}, {"measurement": "variation of sensitivity to free taxol", "setting": "tumor cell lines", "result": "~100", "unit": "fold"}, {"measurement": "enhancement of free taxol activity by DMSO", "setting": "9L rate gliosarcoma", "result": "approximately 8 fold"}, {"measurement": "enhancement of free taxol activity by DMSO", "setting": "A90 human ovarian tumor", "result": "approximately 8 fold"}, {"measurement": "effect on tumor growth", "setting": "[5]; single i.v. dose on day 8, free taxol 15, 25, 30 mg/kg, liposomes 25, 35, 45 mg/kg, vs controls", "result": "showed no effect on tumor growth"}, {"measurement": "tumor growth delay, statistical significance (BMDP 1L)", "setting": "[5]; single i.v. dose, time to reach 1500 mm^3", "result": "no significant delay in tumor growth compared to vehicle or buffer controls (p.0.05)"}, {"measurement": "effect on tumor growth", "setting": "[6]; days 7, 8, 12, 13, free taxol 10, 20, 30, liposomes 20, 30, 40 mg/kg per injection", "result": "showed no effect on tumor progression"}, {"measurement": "tumor growth delay, statistical significance (BMDP 1L)", "setting": "[6]; vs buffer or vehicle controls", "result": "no significant delay in tumor growth at the dose levels tested, compared to buffer or vehicle controls (p>0.05)"}, {"measurement": "response rate", "setting": "[7]", "result": 30, "unit": "%"}, {"measurement": "overall response rate", "setting": "metastatic breast cancer", "result": 56, "unit": "%"}, {"measurement": "effect on tumor progression", "setting": "[8]; 9 doses, any dose (10, 20, 30 mg/kg per injection)", "result": "gave no delay in tumor progression at any dose"}, {"measurement": "tumor growth delay, statistical significance (BMDP 1L)", "setting": "[8]; 9 doses, time to reach 1500 mm^3", "result": "No dose of free taxol, up to and including lethal concentrations, had a significant effect on tumor progression"}, {"measurement": "effect on tumor progression", "setting": "[8]; [9]", "result": "no effect was observed on tumor progression"}, {"measurement": "survival", "setting": "[8]; [9]", "result": "most animals survived"}, {"measurement": "tolerability of individual injections", "setting": "[8]; free taxol 30 mg/kg", "result": "tolerated as individual injections"}, {"measurement": "lethality", "setting": "[8]; free taxol 30 mg/kg per injection", "result": "cumulatively lethal to all animals by day 21"}]}
